pIC50: −log10 of the molar value. Active and inactive are the calls of the source. No cut-off for these calls is given here.
How the values were obtained:
[1] = tested on: CCRF-CEM; assay: Cytotoxicity against human CEM cells after 48 to 72 hrs by MTT assay; type: functional, cell-based
[2] = tested on: K562; assay: Cytotoxicity against human K562 cells after 48 to 72 hrs by MTT assay; type: functional, cell-based
[3] = tested on: K562; assay: Cytotoxicity against human K562 cells at 10 to 100 uM after 24 hrs by trypan blue exclusion assay; type: functional, cell-based
[4] = tested on: K562; assay: Cell cycle arrest in human K562 cells assessed as accumulation at G0/G1 phase at 10 uM after 48 hrs using propidium iodide staining by FACS analysis; type: functional, cell-based
[5] = tested on: CCRF-CEM; assay: Cytotoxicity against human CEM cells at 10 to 100 uM by MTT assay; type: functional, cell-based; settings: TDE = time-dependent effect
[6] = tested on: K562; assay: Cell cycle arrest in human K562 cells assessed as accumulation at S phase at 10 uM after 48 hrs using propidium iodide staining by FACS analysis; type: functional, cell-based
[7] = Cytotoxicity against human HEK293T cells at 1 to 5 uM after 48 to 72 hrs by MTT assay; type: cell-based; settings: hek-293t
[8] = tested on: K562; assay: Cell cycle arrest in human K562 cells assessed as accumulation at G1 phase at 10 uM after 48 hrs using propidium iodide staining by FACS analysis; type: functional, cell-based
[9] = tested on: K562; assay: Cell cycle arrest in human K562 cells assessed as accumulation at G2/M phase at 10 uM after 48 hrs using propidium iodide staining by FACS analysis; type: functional, cell-based
[10] = tested on: K562; assay: Cytotoxicity against human K562 cells at 10 to 100 uM by MTT assay; type: functional, cell-based; settings: TDE = time-dependent effect
[11] = tested on: K562; assay: Cytotoxicity against human K562 cells after 24 hrs by LDH release assay; type: functional, cell-based

Compound | pIC50 [1] | pIC50 [2] | also measured
COc1cccc(C(=O)Nc2nc3c(s2)C[C@@H](N)CC3)c1 | 4.86 | 4.75 | –
CC(C)(C)c1ccc(C(=O)Nc2nc3c(s2)C[C@@H](N)CC3)cc1.Cl | 5.34 | 5.34 | Activity [3]: Active; Activity [4]: inactive; Activity [5]: tde; Activity [6]: inactive; Activity [1]: Dose-dependent effect; Activity [7]: Non-toxic; Activity [8]: inactive; Activity [9]: inactive; Activity [10]: tde; Activity [11]: Dose-dependent effect; Activity [2]: Dose-dependent effect
N[C@H]1CCc2nc(NC(=O)c3ccc(Cl)cc3Cl)sc2C1 | 5.06 | 5.11 | –
N[C@H]1CCc2nc(NC(=O)c3cccc(Br)c3)sc2C1 | 4.64 | 4.68 | –
N[C@H]1CCc2nc(NC(=O)c3c(F)cccc3F)sc2C1 | 4.09 | < 4.00 | –
N[C@H]1CCc2nc(NC(=O)c3cc([N+](=O)[O-])cc([N+](=O)[O-])c3)sc2C1 | 5.04 | 5.09 | –
N[C@H]1CCc2nc(NC(=O)c3ccccc3F)sc2C1 | 4.25 | 4.24 | –
N[C@H]1CCc2nc(NC(=O)c3ccccc3)sc2C1 | 4.21 | 4.18 | –

Reference: ChEMBL document CHEMBL1275326, “Synthesis and identification of a new class of antileukemic agents containing 2-(arylcarboxamide)-(S)-6-amino-4,5,6,7-tetrahydrobenzo[d]thiazole” (Eur J Med Chem, 2010)
